Where “and” joins values, the source holds several entries; their conditions need not be identical. Equal entries are not always repeated.
How the values were obtained:
[1] = system: 20A tumors; experiment: treatment of established xenotransplanted tumors in SCID mice; assay type: in vivo
Description: (§1) Establishment and passaging of the xenotransplanted tumors was performed as described (Douglas et al., 1998, Cytometry 32:57-65; Kawamata et al., 1998, Blood 91:561-569; Pepper et al., 1998, Leuk. Res. 22:439-444). To deplete macrophages and NK cells and to enhance tumor engraftment, SCID mice were injected intraperitoneally with 30-45 milligrams per kilogram of etoposide (Bedford Laboratories, Bedford, Ohio) 4 days prior to implantation of the human EBV^+ B-cell lines (Visonneau et al., 1998, Am. J. Path. 152:1299-1311). Ten million cells of each line employed (see results) were inoculated into mice either intraperitoneally or subcutaneously in 200 microliters of Dulbecco's Phosphate Buffered Saline (DPBS; BioWhittaker, Walkersville, Md.). Ascites or palpable subcutaneous tumors developed 3-5 weeks after cell injection.
(§2) Tumor treatment and growth inhibition experiments were performed using fragments of the established subcutaneous tumors (Pasqualucci et al., 1995, Blood 85:2139-2146, Visonneau et al., 1998, Am. J. Path. 152:1299-1311). For this purpose, mice were anesthetized with KETALAR™ (ketamine, Parke-Davis, Morris Plains, N.J.) by intraperitoneal injection of 100 milligrams per kilogram. Next, the primary tumor was aseptically removed and freed from necrotic, fatty and connective tissue and divided into small pieces of roughly equal size and 3-4 pieces per mouse were injected subcutaneously. Treatment of established tumors with SDZ RAD was started when tumors reached 5 millimeters diameter. In growth inhibition experiments, the treatment was initiated 3 days prior to the tumor implantation. Tumor volume in all experiments was determined from the equation: volume=0.4ab^2, where a and b designate respectively long and short diameter of the tumor. The transplanted mice were monitored for tumor growth for a period of up to 2 months. Five milligrams per kilogram of SDZ RAD was administered once a day by gavage as described (Schuurman et al., 1997, Transplantation 64:32-5; Schuler et al. 1997, Transplantation 64:36-42).
(§3) Mice were sacrificed by exposure to FORANE™ (isoflurane, Ohmeda, Liberty Place, N.J.) on day 29 in the drug toxicity study, on day 40-55 in the tumor growth inhibition study or when tumors achieved approximately 2 centimeter diameter, or when ulceration of the skin, signs of severe respiratory distress, weakness, or lethargy appeared. Complete autopsy was performed on all mice at the end of the study regardless of their appearance. Tumor and internal organs (spleen, liver, lung, heart, kidney, small and large intestines, femoral bone for bone marrow) were fixed in 10% (v/v) formalin, embedded in paraffin, cut into […] sections, transferred to glass slides, and stained with hematoxylin and eosin. Representative tumor fragments were stained immunohistochemically by standard streptavidin-biotin complex technique using commercially available reagents (Research Genetics, Huntsville, Ala.), antibodies: anti-CD20 (L-26) and LMP-1 (both from DAKO, Carpinteria, Calif.) and Ki67 (mib1; Immunotech, Westbrook, Me.). EBV-encoded RNA (EBER-1), and detected using commercially available reagents.
(§4) In order to determine the in vivo effect of SDZ RAD on PTLD-like cells, 15A, 20A, and A1 cell line tumors were implanted into 7-15 SCID mice per cell line. Treatment was initiated once the tumors reached 5 millimeters diameter, which corresponds to a volume of 50 cubic millimeters. SDZ RAD was administered by daily gavage at 5 milligrams per kilogram, which represents a non-toxic and effective immunosuppressive dose (Schuurman et al., 1997, Transplantation 64:32-5; Schuler et al. 1997, Transplantation 64:36-42).

[2] = system: 15A tumors; experiment: as above; assay type: in vivo; details: 5 milligrams per kilogram daily gavage
Description: as §1, §2, §3, §4

[3] = system: A1 cell line tumors; experiment: as above; assay type: in vivo
Description: as §1, §2, §3, §4

[4] = system: 20A line; experiment: apoptosis (Annexin V flow cytometry); assay type: cell-based, human; details: 24 hours
Description: (§5) The cell lines to be examined were cultured with several concentrations of SDZ RAD (0 to 10 nanomolar) for 24-48 hours. The cells were washed with DPBS and stain solution (pH 7.2) containing 3% PEG 6000, 50 micrograms per milliliter DNA fluorochrome propidium iodide (PI; Calbiochem, San Diego, Calif.), annexin V-FITC as described (Douglas et al., 1998, Cytometry 32:57-65) 0.1% (v/v) TRITON™ X (Sigma, St. Louis, Mo.), 4 millimolar citrate buffer pH 7.8, and 360 units per milliliter RNase A (Worthington Biochemicals, Freehold, N.J.) for 30 minutes at 37 C. Next, salt solution pH 7.2 (3% w/v PEG 6000, PI 50 micrograms per milliliter, 0.1% v/v TRITON™ X, and 0.4 molar NaCl) was added, and the cells were incubated at 4° C. in the dark for 1 hour before flow cytometry analysis was performed, as described (Douglas et al., 1998, Cytometry 32:57-65; Kawamata et al., 1998, Blood 91:561-569; Pepper et al., 1998, Leuk. Res. 22:439-444).
(§6) Previous studies have shown that immunosuppressive macrolides as represented by rapamycin can induce or enhance apoptosis stimulated by other agents (Gottschalk et al., 1994, Proc. Natl. Acad. Sci. USA 91:7350-7354; Muthukkumar et al., 1995, Transplantation 60:264-270; Shi et al., 1995, Cancer Res. 55:1982-1988; Hosoi et al., 1999, Cancer Res. 59:886-894). In order to determine if SDZ RAD affects the apoptotic rate in PTLD-like cells, we tested apoptosis-induced surface expression of Annexin V by flow cytometry in the 20A, A1, A2D6 cell lines (FIG. 3). […] In A2D6 line, it led to 11% increase, and in the 20A line to 12% increase. At the highest dose (10 nanomolar), SDZ RAD led to approximately 240% increase in A1 line and 45% increase in both A2D6 and 20A lines.

[5] = system: A1 line; experiment: apoptosis (Annexin V flow cytometry); assay type: cell-based, human; details: 24 hours
Description: as §5, §6

[6] = system: A2D6 line; experiment: apoptosis (Annexin V flow cytometry); assay type: cell-based, human; details: 24 hours
Description: as §5, §6

CO[C@H]1C[C@@H]2CC[C@@H](C)[C@@](O)(O2)C(=O)C(=O)N2CCCC[C@H]2C(=O)O[C@H]([C@H](C)C[C@@H]2CC[C@@H](OCCO)[C@H](OC)C2)CC(=O)[C@H](C)/C=C(\C)[C@@H](O)[C@@H](OC)C(=O)[C@H](C)C[C@H](C)/C=C/C=C/C=C/1C [SDZ RAD, 40-O-(2-hydroxy)ethyl-rapamycin]
treated mice with significant regression in the tumor volume ([1]; 5 milligrams per kilogram daily gavage): 6 out of 10 | average treated tumor volume ([1]; day 19, 5 milligrams per kilogram daily gavage, equal to initial tumor size): 50 cubic millimeters | median tumor volume ([1]; day 53, subset of mice with regression): < 5 cubic millimeters | effect on tumor growth ([2]; started at 5 millimeters tumor diameter): marked drug-induced delay of the tumor growth but no absolute tumor growth inhibition or regression | median tumor volume ([2]; day 21, treated mice): approximately 240 cubic millimeters | tumor volume ([2]; day 38, treated mice): around 1000 cubic millimeters | mice with steady regression on further treatment ([3]; after day 21): all 8 | tumors showing any evidence of growth ([3]; day 21): 0/8 | median volume of the treated tumors ([3]; day 21, 5 milligrams per kilogram daily gavage): 50 cubic millimeters | mean tumor volume ([3]; day 53): < 5 cubic millimeters | mice in which no lymphoma could be detected (total tumor eradication) ([3]; day 53, 8 treated mice): 4 and 4 out of 8 | mice with microscopically-confirmed residual lymphoma ([3]; day 53, 8 treated mice): 4 | increase in the number of apoptotic cells ([4]; 1 nanomolar): 12% | increase in the number of apoptotic cells ([4]; 10 nanomolar): 45% | increase in the number of apoptotic cells ([5]; 1 nanomolar): approximately 60% | percentage of apoptotic cells ([5]; 1 nanomolar, from 10% without drug): 16% | increase in the number of apoptotic cells ([5]; 10 nanomolar): approximately 240% | increase in the number of apoptotic cells ([6]; 1 nanomolar): 11% | increase in the number of apoptotic cells ([6]; 10 nanomolar): 45%

Source: patent US8778961B2, “O-methylated rapamycin derivatives for alleviation and inhibition of lymphoproliferative disorders” (The Trustees of the University of Pennsylvania, priority 2000, dated 2014)
